Several values for one entry are separate records, joined by “and”; a condition that tells them apart may be missing. Identical values can stand only once.
Legend:
[1] = assay type: physicochemical; details: pH 0
[2] = pH=6
[3] = physchem; details: pH 6

Structure (SMILES)	Ko/a [1]	partition coefficient [2]	logD [3]
CN(C)C(=O)Oc1ccc[n+](C)c1.[Br-] [Pyridostigmine Bromide, 3-dimethylaminocarbonyloxy-N-methylpyridinium bromide]	1.9 × 10^−3 and 2.3 × 10^−2 and 2.0 × 10^−2	–	–
C[n+]1ccccc1/C=N/O [2-PAM chloride, 2-[(hydroxyimino)methyl]-1-methylpyrdinium chloride]	–	0.79	-3.12

Reference: patent US20030065015A1 (priority 2001, published 2003)
